In assay [1] the target is T1, ALK (Homo sapiens, UniProt Q9UM73).
T1 construct: host or cells: baculovirus expression system
Kind of assay: ALK Kinase Assay (ELISA/TRF, PLC-γ substrate). The assay is classed as biochemical. Conditions: ALK Kinase Inhibition; read-out: ALK Potency. The method, boiled down:
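Wells were coated with 10 μg/mL phospholipase C-γ substrate in TBS, and the reaction was started by adding 30 ng/ml ALK enzyme and run at 37° C for 15 minutes. Phosphorylated product was detected with Eu-N1-labeled PT66 antibody, and IC50 values came from sigmoidal variable-slope fits of percent inhibition against log concentration.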

Assay [2] addresses T2, JAK2 (Homo sapiens, UniProt O60674).
T2 construct: host or cells: baculovirus expression system
Briefly: Recombinant Human JAK2 Kinase Assay (TRF). Conditions: JAK2 Kinase Inhibition; read-out: JAK2 Potency. Type of assay: biochemical. The method, boiled down: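 Kinase activity of baculovirus-expressed JAK2 is followed on a surface-immobilised biotinylated peptide, with the reaction run for 20 min at room temperature in buffer containing 0.2 μM ATP and manganese. Phosphorylation is read with Eu-N1 PY100 antibody.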

T2 sequence (O60674 whole entry): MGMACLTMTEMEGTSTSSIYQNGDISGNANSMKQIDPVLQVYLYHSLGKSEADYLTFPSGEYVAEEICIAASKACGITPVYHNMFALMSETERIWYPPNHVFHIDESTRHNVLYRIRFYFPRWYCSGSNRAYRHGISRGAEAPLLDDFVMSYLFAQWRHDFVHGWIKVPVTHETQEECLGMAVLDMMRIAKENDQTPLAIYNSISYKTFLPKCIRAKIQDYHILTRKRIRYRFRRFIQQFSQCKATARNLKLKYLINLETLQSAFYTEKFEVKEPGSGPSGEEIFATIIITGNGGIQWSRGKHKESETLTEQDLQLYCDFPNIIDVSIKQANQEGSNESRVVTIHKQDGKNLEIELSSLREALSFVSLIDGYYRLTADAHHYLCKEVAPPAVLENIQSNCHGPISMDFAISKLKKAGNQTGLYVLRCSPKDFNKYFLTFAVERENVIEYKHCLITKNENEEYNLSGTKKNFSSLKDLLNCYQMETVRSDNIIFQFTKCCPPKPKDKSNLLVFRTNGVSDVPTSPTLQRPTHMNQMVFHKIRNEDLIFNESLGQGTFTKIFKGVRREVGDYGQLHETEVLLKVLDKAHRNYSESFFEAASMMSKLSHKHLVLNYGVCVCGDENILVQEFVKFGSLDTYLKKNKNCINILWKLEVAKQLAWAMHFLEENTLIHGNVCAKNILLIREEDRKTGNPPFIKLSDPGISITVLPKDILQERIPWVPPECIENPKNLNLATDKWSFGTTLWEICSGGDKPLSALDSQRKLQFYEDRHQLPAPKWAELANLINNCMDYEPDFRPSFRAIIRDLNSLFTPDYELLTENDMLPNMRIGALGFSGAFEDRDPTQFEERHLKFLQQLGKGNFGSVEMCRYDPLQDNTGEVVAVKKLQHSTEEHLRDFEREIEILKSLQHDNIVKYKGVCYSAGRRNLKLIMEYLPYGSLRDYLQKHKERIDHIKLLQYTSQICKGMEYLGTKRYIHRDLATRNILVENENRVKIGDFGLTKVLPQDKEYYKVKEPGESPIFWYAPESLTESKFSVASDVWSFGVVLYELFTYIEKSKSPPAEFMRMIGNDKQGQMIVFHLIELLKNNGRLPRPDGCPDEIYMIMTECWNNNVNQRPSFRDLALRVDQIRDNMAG
T1 sequence (Q9UM73 19-1620): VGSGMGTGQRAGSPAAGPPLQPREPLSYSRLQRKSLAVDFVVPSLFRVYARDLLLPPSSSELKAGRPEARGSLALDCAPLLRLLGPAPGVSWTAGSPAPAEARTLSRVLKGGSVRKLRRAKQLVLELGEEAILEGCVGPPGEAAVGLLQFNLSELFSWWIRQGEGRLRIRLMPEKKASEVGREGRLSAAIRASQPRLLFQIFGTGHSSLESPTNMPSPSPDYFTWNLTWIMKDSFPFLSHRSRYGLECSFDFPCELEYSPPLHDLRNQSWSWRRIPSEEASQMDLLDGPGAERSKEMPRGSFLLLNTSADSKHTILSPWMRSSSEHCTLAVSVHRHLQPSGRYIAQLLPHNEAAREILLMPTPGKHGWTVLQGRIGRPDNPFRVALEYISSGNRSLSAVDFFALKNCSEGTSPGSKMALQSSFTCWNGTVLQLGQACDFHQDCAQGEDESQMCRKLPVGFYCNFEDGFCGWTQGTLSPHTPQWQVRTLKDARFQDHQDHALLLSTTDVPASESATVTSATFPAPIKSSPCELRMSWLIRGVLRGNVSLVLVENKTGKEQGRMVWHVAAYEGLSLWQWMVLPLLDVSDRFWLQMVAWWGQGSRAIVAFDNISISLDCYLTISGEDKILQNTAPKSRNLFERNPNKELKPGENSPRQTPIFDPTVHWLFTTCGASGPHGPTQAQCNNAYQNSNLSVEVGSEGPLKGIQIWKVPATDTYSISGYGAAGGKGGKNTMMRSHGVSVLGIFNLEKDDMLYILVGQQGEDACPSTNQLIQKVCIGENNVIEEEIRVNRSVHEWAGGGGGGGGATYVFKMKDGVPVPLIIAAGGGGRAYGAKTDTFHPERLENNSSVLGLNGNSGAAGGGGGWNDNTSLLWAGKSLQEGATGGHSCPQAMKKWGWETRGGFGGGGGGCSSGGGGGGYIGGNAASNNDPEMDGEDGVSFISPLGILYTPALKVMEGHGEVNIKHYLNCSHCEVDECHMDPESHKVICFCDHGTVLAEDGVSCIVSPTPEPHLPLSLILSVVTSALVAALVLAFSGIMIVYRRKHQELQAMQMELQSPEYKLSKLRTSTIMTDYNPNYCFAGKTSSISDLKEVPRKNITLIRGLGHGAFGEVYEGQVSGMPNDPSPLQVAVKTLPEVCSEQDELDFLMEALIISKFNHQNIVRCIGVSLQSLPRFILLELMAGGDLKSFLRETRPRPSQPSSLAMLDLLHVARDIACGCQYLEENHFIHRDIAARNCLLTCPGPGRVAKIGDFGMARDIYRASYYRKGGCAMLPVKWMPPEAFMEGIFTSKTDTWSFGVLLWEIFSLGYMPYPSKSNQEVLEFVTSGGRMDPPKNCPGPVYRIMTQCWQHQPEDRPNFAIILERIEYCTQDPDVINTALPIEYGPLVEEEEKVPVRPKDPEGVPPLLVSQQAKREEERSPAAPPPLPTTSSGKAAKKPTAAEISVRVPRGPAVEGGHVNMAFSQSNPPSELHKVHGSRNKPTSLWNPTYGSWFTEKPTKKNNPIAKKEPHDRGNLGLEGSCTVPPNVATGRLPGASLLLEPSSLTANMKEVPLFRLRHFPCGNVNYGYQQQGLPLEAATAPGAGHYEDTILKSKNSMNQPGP

For `CC(C)S(=O)(=O)c1ccc(-c2ccc3cnc(Nc4ccc(N5CCOCC5)cc4)nn23)cc1` [Example 199, (4-Morpholin-4-yl-phenyl)-{7-[4-(propane-2-sulfonyl)-phenyl]-pyrrolo[2,1-f][1,2,4]triazin-2-yl}-amine], the IC50 in assay [1] is 1000 to 10000 nM; in assay [2], less than 100 nM.
For `CS(=O)(=O)Nc1ccc(-c2ccc3cnc(Nc4ccc(N5CCOCC5)cc4)nn23)cc1` [Example 200, N-{4-[2-(4-Morpholin-4-yl-phenylamino)-pyrrolo[2,1-f][1,2,4]triazin-7-yl]-phenyl}-methanesulfonamide], the IC50 in assay [1] was 100 to 1000 nM; in assay [2], less than 100 nM.
The matching figures for `CS(=O)(=O)Nc1cccc(-c2ccc3cnc(Nc4ccc(N5CCOCC5)cc4)nn23)c1` [Example 201, N-{3-[2-(4-Morpholin-4-yl-phenylamino)-pyrrolo[2,1-f][1,2,4]triazin-7-yl]-phenyl}-methanesulfonamide]: 100 to 1000 nM and less than 100 nM.
`COc1ccc(Cl)cc1-c1ccc2cnc(Nc3ccc(N4CCN(C[C@H](C)O)CC4)cc3)nn12` [Example 203, (S)-1-(4-{4-[7-(5-Chloro-2-methoxy-phenyl)-pyrrolo[2,1-f][1,2,4]triazin-2-ylamino]-phenyl}-piperazin-1-yl)-propan-2-ol]: the IC50 in assay [1] and in assay [2] was less than 100 nM in each case.
Consider `C[C@H](O)CN1CCN(c2ccc(Nc3ncc4ccc(-c5cccc(Cl)c5)n4n3)cc2)CC1` [Example 204, (S)-1-(4-{4-[7-(3-Chloro-phenyl)-pyrrolo[2,1-f][1,2,4]triazin-2-ylamino]-phenyl}-piperazin-1-yl)-propan-2-ol], for which the IC50 in assay [1] and in assay [2] was less than 100 nM each time.
For the compound `C[C@H](O)CN1CCN(c2ccc(Nc3ncc4ccc(-c5ccc(S(C)(=O)=O)cc5)n4n3)cc2)CC1` [Example 205, (S)-1-(4-{4-[7-(4-Methanesulfonyl-phenyl)-pyrrolo[2,1-f][1,2,4]triazin-2-ylamino]-phenyl}-piperazin-1-yl)-propan-2-ol], the IC50 in assay [1] was 100 to 1000 nM; in assay [2], less than 100 nM.
The matching figures for `COc1ccc(Cl)cc1-c1ccc2cnc(Nc3ccc(N4CCN(C[C@@H](C)O)CC4)cc3)nn12` [Example 207, (R)-1-(4-{4-[7-(5-Chloro-2-methoxy-phenyl)-pyrrolo[2,1-f][1,2,4]triazin-2-ylamino]-phenyl}-piperazin-1-yl)-propan-2-ol]: less than 100 nM and less than 100 nM.
The matching figures for `C[C@@H](O)CN1CCN(c2ccc(Nc3ncc4ccc(-c5cccc(Cl)c5)n4n3)cc2)CC1` [Example 208, (R)-1-(4-{4-[7-(3-Chloro-phenyl)-pyrrolo[2,1-f][1,2,4]triazin-2-ylamino]-phenyl}-piperazin-1-yl)-propan-2-ol]: 100 to 1000 nM and less than 100 nM.
The matching figures for `C[C@@H](O)CN1CCN(c2ccc(Nc3ncc4ccc(-c5ccc(S(C)(=O)=O)cc5)n4n3)cc2)CC1` [Example 209, (R)-1-(4-{4-[7-(4-Methanesulfonyl-phenyl)-pyrrolo[2,1-f][1,2,4]triazin-2-ylamino]-phenyl}-piperazin-1-yl)-propan-2-ol]: 100 to 1000 nM and less than 100 nM.
As to `COc1ccc(Cl)cc1-c1ccc2cnc(Nc3cccc(N4CCN(C[C@H](C)O)CC4)c3)nn12` [Example 211, (S)-1-(4-{3-[7-(5-Chloro-2-methoxy-phenyl)-pyrrolo[2,1-f][1,2,4]triazin-2-ylamino]-phenyl}-piperazin-1-yl)-propan-2-ol], the IC50 in assay [1] and in assay [2] was less than 100 nM throughout.
Take `C[C@H](O)CN1CCN(c2cccc(Nc3ncc4ccc(-c5cccc(Cl)c5)n4n3)c2)CC1` [Example 212, (S)-1-(4-{3-[7-(3-Chloro-phenyl)-pyrrolo[2,1-f][1,2,4]triazin-2-ylamino]-phenyl}-piperazin-1-yl)-propan-2-ol]: the IC50 in assay [1] and in assay [2] was less than 100 nM each time.
As to `COc1ccc(Cl)cc1-c1ccc2cnc(Nc3cccc(N4CCN(C[C@@H](C)O)CC4)c3)nn12` [Example 214, (R)-1-(4-{3-[7-(5-Chloro-2-methoxy-phenyl)-pyrrolo[2,1-f][1,2,4]triazin-2-ylamino]-phenyl}-piperazin-1-yl)-propan-2-ol], the IC50 in assay [1] and in assay [2] was less than 100 nM each time.
Turning to `C[C@@H](O)CN1CCN(c2cccc(Nc3ncc4ccc(-c5cccc(Cl)c5)n4n3)c2)CC1` [Example 215, (R)-1-(4-{3-[7-(3-Chloro-phenyl)-pyrrolo[2,1-f][1,2,4]triazin-2-ylamino]-phenyl}-piperazin-1-yl)-propan-2-ol], the IC50 in assay [1] and in assay [2] was less than 100 nM each time.
As to `C[C@H](O)CN1CCN(c2cccc(Nc3ncc4ccc(-c5ccc(S(C)(=O)=O)cc5)n4n3)c2)CC1` [Example 216, (S)-1-(4-{3-[7-(4-Methanesulfonyl-phenyl)-pyrrolo[2,1-f][1,2,4]triazin-2-ylamino]-phenyl}-piperazin-1-yl)-propan-2-ol], the figures for the IC50 in assay [1] and in assay [2] were 100 to 1000 nM and less than 100 nM, respectively.
The matching figures for `C[C@@H](O)CN1CCN(c2cccc(Nc3ncc4ccc(-c5ccc(S(C)(=O)=O)cc5)n4n3)c2)CC1` [Example 217, (R)-1-(4-{3-[7-(4-Methanesulfonyl-phenyl)-pyrrolo[2,1-f][1,2,4]triazin-2-ylamino]-phenyl}-piperazin-1-yl)-propan-2-ol]: 100 to 1000 nM and less than 100 nM.
The matching figures for `COc1ccccc1-c1ccc2cnc(Nc3cccc(N4CCN(CC(C)(C)O)CC4)c3)nn12` [Example 218, 1-(4-{3-[7-(2-Methoxy-phenyl)-pyrrolo[2,1-f][1,2,4]triazin-2-ylamino]-phenyl}-piperazin-1-yl)-2-methyl-propan-2-ol]: less than 100 nM and less than 100 nM.
The matching figures for `COc1ccc(Cl)cc1-c1ccc2cnc(Nc3cccc(N4CCN(CC(C)(C)O)CC4)c3)nn12` [Example 219, 1-(4-{3-[7-(5-Chloro-2-methoxy-phenyl)-pyrrolo[2,1-f][1,2,4]triazin-2-ylamino]-phenyl}-piperazin-1-yl)-2-methyl-propan-2-ol]: less than 100 nM and less than 100 nM.
As to `CC(C)(O)CN1CCN(c2cccc(Nc3ncc4ccc(-c5cccc(Cl)c5)n4n3)c2)CC1` [Example 220, 1-(4-{3-[7-(3-Chloro-phenyl)-pyrrolo[2,1-f][1,2,4]triazin-2-ylamino]-phenyl}-piperazin-1-yl)-2-methyl-propan-2-ol], the values for the IC50 in assay [1] and in assay [2] were 100 to 1000 nM and less than 100 nM, respectively.
For `COc1ccccc1-c1ccc2cnc(Nc3ccc(N4CCN(CC(C)(C)O)CC4)cc3)nn12` [Example 221, 1-(4-{4-[7-(2-Methoxy-phenyl)-pyrrolo[2,1-f][1,2,4]triazin-2-ylamino]-phenyl}-piperazin-1-yl)-2-methyl-propan-2-ol], the IC50 in assay [1] and in assay [2] was less than 100 nM each time.
As to `COc1ccc(Cl)cc1-c1ccc2cnc(Nc3ccc(N4CCN(CC(C)(C)O)CC4)cc3)nn12` [Example 222, 1-(4-{4-[7-(5-Chloro-2-methoxy-phenyl)-pyrrolo[2,1-f][1,2,4]triazin-2-ylamino]-phenyl}-piperazin-1-yl)-2-methyl-propan-2-ol], the IC50 in assay [1] and in assay [2] was less than 100 nM throughout.
